Experimental data: patent US10005750B2, “Developing potent urate transporter inhibitors: compounds designed for their uricosuric action” (priority 2010, dated 2018)
Blank lines part the entries; values can stand above or below the compound they belong to.

How the values were obtained:
hURAT1 [1] = molecular target: T1, hURAT1 (Homo sapiens, UniProt Q96S37); parameters: expressed in transfected cells; host or cells: Xenopus laevis oocytes injected with capped cRNA; conditions: previous results of the applicants' laboratories; cited from earlier work
T1 sequence (Q96S37 1-553): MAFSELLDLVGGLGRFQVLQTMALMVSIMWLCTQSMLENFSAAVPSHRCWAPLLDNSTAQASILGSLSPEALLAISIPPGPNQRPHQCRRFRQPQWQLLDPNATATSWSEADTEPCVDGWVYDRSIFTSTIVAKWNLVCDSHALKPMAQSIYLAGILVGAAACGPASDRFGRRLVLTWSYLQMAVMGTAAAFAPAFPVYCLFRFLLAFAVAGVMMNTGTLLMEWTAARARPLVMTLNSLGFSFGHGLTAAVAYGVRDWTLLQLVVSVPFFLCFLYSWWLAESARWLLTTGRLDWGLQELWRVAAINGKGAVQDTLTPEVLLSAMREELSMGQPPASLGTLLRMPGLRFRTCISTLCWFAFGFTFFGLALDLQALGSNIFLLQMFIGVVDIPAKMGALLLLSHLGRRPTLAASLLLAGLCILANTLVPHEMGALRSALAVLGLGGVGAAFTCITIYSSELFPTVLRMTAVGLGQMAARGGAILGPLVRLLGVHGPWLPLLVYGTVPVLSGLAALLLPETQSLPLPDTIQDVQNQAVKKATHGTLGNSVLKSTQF

[2] = oral; 7 (100 mg/kg) versus 4 (300 mg/day) or 5 (1000 mg/day); cited from earlier work
hURAT1 [3] = molecular target: T1, hURAT1; assay: [14C]urate uptake inhibition in Xenopus oocytes expressing hURAT1; type: cell-based; parameters: expressed in transfected cells; host or cells: Xenopus laevis oocytes injected with capped cRNA; conditions: 60 min; for 14C-urate transport inhibition: test compound at 50 μM; for IC50: 14C-uric acid uptake
Description: cRNA synthesis and oocyte injection. The hURATv1 (pCMV6-XL5) plasmids were linearized with XbaI and hURAT2 (pCMV-SPORT6) plasmids were linearized with XhoI. The cRNAs were synthesized in vitro with T7 RNA polymerase (for hURATv1) or SP6 RNA polymerase (for hURAT2) using mMessage mMachine® High yield capped RNA transcription kit (Ambion, Austin, Tex., USA). The polyadenylation of cRNA at 3′-end was performed using poly(A) tailing kit (Ambion, Austin, Tex., USA). Female Xenopus frogs (African clawed frogs; 95-120 g) were purchased from Sato Zoushoku (Chiba, Japan) and nurtured in tap water (19±3° C.). […] The oocytes were washed in Ca^2+-free solution and transferred to ND96 solution (96.0 mM NaCl, 2.0 mM KCl, 1.0 mM CaCl2, 1.0 mM MgCl2.6H2O and 5.0 mM HEPES, pH 7.5). Defolliculated Xenopus oocytes (stage 1V and V) were injected with 25 ng of capped cRNA and incubated at 18° C. for 2-3 days in ND96 solution containing gentamicin (50 μg/ml) and 2.5 mM sodium pyruvate.
Inhibition study. After incubation of cRNA-injected oocytes (2-3 days), uptake experiments were performed at room temperature in ND96 solution. […] The uptake was terminated by washing the oocytes with ice-cold uptake solution (5 times @ 1.0 ml each) after 60 min of incubation. The oocytes were solubilized with 5% (w/v) SDS and the radioactivity content determined using liquid scintillation counter (Aloka 3100; Aloka Co., Ltd. Tokyo, Japan). The urate uptake by non-injected (control) oocytes was subtracted from oocytes expressing hURAT1, hURATv1 or hURAT2. The data are presented and reported as the % inhibition. The IC50 data were conducted using different compound concentrations.
We conducted a general screen where ^14C-uric acid ([…]) and test compound (50 μM) were placed in the extracellular fluid. Radioactivity inside the oocyte was analyzed after 60 min. […] The IC50 values were generated using a sigmoidal dose-response (variable slope) relationship.

[4] = system: hURAT1, hURAT2, and hURATv1; assay: combined % inhibition of urate transport in oocytes expressing hURAT1, hURAT2 or hURATv1; type: cell-based, human; conditions: sum over the three transporters
Description: cRNA synthesis and oocyte injection. The hURATv1 (pCMV6-XL5) plasmids were linearized with XbaI and hURAT2 (pCMV-SPORT6) plasmids were linearized with XhoI. The cRNAs were synthesized in vitro with T7 RNA polymerase (for hURATv1) or SP6 RNA polymerase (for hURAT2) using mMessage mMachine® High yield capped RNA transcription kit (Ambion, Austin, Tex., USA). The polyadenylation of cRNA at 3′-end was performed using poly(A) tailing kit (Ambion, Austin, Tex., USA). Female Xenopus frogs (African clawed frogs; 95-120 g) were purchased from Sato Zoushoku (Chiba, Japan) and nurtured in tap water (19±3° C.). Oocytes (1.23±0.10 mg/oocyte) isolated from Xenopus laevis were defolliculated with 1.0 mg/ml collagenase in Ca^2+-free solution (96.0 mM NaCl, 2.0 mM KCl, 1.0 mM MgCl2.6H2O and 5.0 mM HEPES, pH 7.5) at 25+2° C. for 2.0 h. The oocytes were washed in Ca^2+-free solution and transferred to ND96 solution (96.0 mM NaCl, 2.0 mM KCl, 1.0 mM CaCl2, 1.0 mM MgCl2.6H2O and 5.0 mM HEPES, pH 7.5). Defolliculated Xenopus oocytes (stage 1V and V) were injected with 25 ng of capped cRNA and incubated at 18° C. for 2-3 days in ND96 solution containing gentamicin (50 μg/ml) and 2.5 mM sodium pyruvate.
Inhibition study. […] The oocytes were solubilized with 5% (w/v) SDS and the radioactivity content determined using liquid scintillation counter (Aloka 3100; Aloka Co., Ltd. Tokyo, Japan). […]

hURAT1 [5] = molecular target: T1, hURAT1; assay: MDCK-hURAT1 data (Endou and Olkawa, 2009); type: cell-based; parameters: expressed in transfected cells; conditions: 8 versus 7, MDCK-hURAT1 data

Compound: CCc1oc2ccccc2c1C(=O)c1cc(Br)c(O)c(Br)c1 [Compound 7, (3,5-Dibromo-4-hydroxyphenyl)(2-ethylbenzofuran-3-yl)methanone]
hURAT1 inhibitor properties (hURAT1 [1]): potent | physiological effect (lowers urate level) [2]: greater physiological effect

14C-urate transport inhibition (hURAT1 [3]): weak inhibition
Compound: CCc1oc2c(OC)cccc2c1C(=O)c1ccc(OC)cc1 [Compound 19, (2-Ethyl-7-methoxybenzofuran-3-yl)(4-methoxyphenyl)methanone]

Compound: CCc1cc2cc(OC)cc(C(=O)c3cc(Br)c(O)c(Br)c3)c2o1 [Compound 43]
IC50 (hURAT1 [3]): 1.44 µM

Compound: CCc1oc2ccccc2c1C(=O)c1ccc(O)cc1 [Compound 13, (2-Ethylbenzofuran-3-yl)(4-hydroxyphenyl)methanone, reference compound]
IC50 (hURAT1 [3]): 2.8 µM

IC50 (hURAT1 [3]): > 50 µM
Compound: CCc1oc2cc(O)ccc2c1C(=O)c1ccc(OC)cc1 [Compound 31, (2-Ethyl-6-hydroxybenzofuran-3-yl)(4-methoxyphenyl)methanone]

Compound: CCc1oc2cc(OC)ccc2c1C(=O)c1ccc(O)cc1 [Compound 30, (2-Ethyl-6-methoxybenzofuran-3-yl)(4-hydroxyphenyl)methanone]
IC50 (hURAT1 [3]): 3.9 µM

14C-urate transport inhibition (hURAT1 [3]): weak inhibition
Compound: CCc1oc2ccc(OC)cc2c1C(=O)c1ccc(OC)cc1 [Compound 14, (2-Ethyl-5-methoxybenzofuran-3-yl)(4-methoxyphenyl)methanone]

Compound: CCc1oc2ccccc2c1C(=O)c1cc(Br)c(OC)c(Br)c1 [Compound 85, (3,5-Dibromo-4-methoxyphenyl)(2-ethylbenzofuran-3-yl)methanone]
combined % inhibition for hURAT1, hURAT2, and hURATv1 [4]: < 160%

14C-urate transport inhibition (hURAT1 [3]): weak-to-no
Compound: CCc1oc2ccccc2c1C(=O)c1ccc(OC)cc1 [Compound 12, (2-Ethylbenzofuran-3-yl)(4-methoxyphenyl)methanone]

Compound: CCc1oc2cc(O)ccc2c1C(=O)c1cc(Br)c(O)c(Br)c1 [Compound 8, (3,5-dibromo-4-hydroxyphenyl)(2-ethyl-6-hydroxy-benzofuran-3-yl)methanone]
hURAT1 inhibitor properties (hURAT1 [1]): potent | fold difference (hURAT1 [5]): 5.7 fold | IC50 (hURAT1 [3]): 0.138 µM

Compound: CCc1cc2cc(O)cc(C(=O)c3cc(Br)c(O)c(Br)c3)c2o1 [Compound 44, (3,5-Dibromo-4-hydroxyphenyl)(2-ethyl-5-hydroxybenzofuran-7-yl)methanone]
IC50 (hURAT1 [3]): 0.287 µM

IC50 (hURAT1 [3]): 1.1 µM
Compound: CCc1oc2cc(O)ccc2c1C(=O)c1ccc(O)cc1 [Compound 32, (2-ethyl-6-hydroxybenzofuran-3-yl)(4-hydroxyphenyl)methanone]
